One series relates to A549. In words: Antiproliferative activity against human A549 cells assessed as inhibition of cell proliferation incubated for 72 hrs by MTT assay. In kind it is functional, cell-based. The note with it: A549, 72 h.
The test system of the next series is PC-9. In words: Antiproliferative activity against human PC-9 cells assessed as inhibition of cell proliferation incubated for 72 hrs by MTT assay. It counts as functional, cell-based. The note with it: PC-9, 72 h.
In another series the test system is NCI-H1975. Kind of series: Antiproliferative activity against human NCI-H1975 cells assessed as inhibition of cell proliferation incubated for 72 hrs by MTT assay. In kind it is functional, cell-based. As to conditions: NCI-H1975, 72 h.
Series [1] can be described thus: Cytotoxicity against human MRC5 cells assessed as inhibition of cell proliferation incubated for 72 hrs by MTT assay. It counts as toxicity, cell-based.
The nature of series [2]: Selectivity index, ratio of IC50 for cytotoxicity against human MRC5 cells assessed as inhibition of cell proliferation to IC50 for antiproliferative activity against human NCI-H1975 cells assessed as inhibition of cell proliferation. The note with it: MRC5 cells and NCI-H1975 cells, read-out: Ratio IC50. In kind it is toxicity, cell-based.

Molecules are shown by their SMILES.

Turning to `O=C(NCC1CC1)c1cccc(-c2ccc3sc(NC(=O)c4ccc(F)cc4)nc3c2)c1`, the concentration for half-maximal inhibition (IC50) was above 40 µM with A549, 11.9 µM in the series on PC-9 and above 40 µM in the series on NCI-H1975. In series [1], the half-maximal inhibitory concentration (IC50) at 72 h is above 80 µM.
Regarding `COCCNC(=O)c1cccc(-c2ccc3sc(NC(C)=O)nc3c2)c1`, the IC50 with A549, with PC-9 and with NCI-H1975 was above 40 µM in each case. Moreover, the IC50 at 72 h in series [1] was above 80 µM.
As to `Cc1ccc(CNC(=O)c2cccc(-c3ccc4sc(NC(=O)C5CCCCC5)nc4c3)c2)cc1`, the IC50 in the series on A549, with PC-9 and in the series on NCI-H1975 was above 40 µM throughout. Further, the concentration for half-maximal inhibition (IC50) at 72 h in series [1] is above 80 µM.
Regarding `CC(C)(C)C(=O)Nc1nc2cc(-c3cccc(C(=O)NCC4CC4)c3)ccc2s1`, the IC50 in the series with A549 was 27.6 µM; in the series on PC-9, 21.8 µM; in the series on NCI-H1975, above 40 µM. In addition, the 50% inhibitory concentration (IC50) at 72 h in series [1] is above 80 µM.
With `CC(C)CCNC(=O)c1cccc(-c2ccc3sc(NC(=O)C(C)(C)C)nc3c2)c1`, the IC50 was above 40 µM in the series on A549, 13.9 µM with PC-9 and 4.4 µM in the series on NCI-H1975. Besides, the IC50 at 72 h in series [1] was above 80 µM. Besides, the selectivity ratio in series [2] was above 18.2.
On the same counts, the results for `COCCNC(=O)c1cccc(-c2ccc3sc(NC(=O)c4ccccc4)nc3c2)c1` are above 40 µM, above 40 µM, 17.7 µM, above 80 µM and above 4.52.
For the compound `COCOc1cc(OCOC)c2c(c1)O[C@@H](c1ccc(OC)cc1)CC2=O`, the IC50 was above 40 µM in the series on A549, 10.4 µM in the series with PC-9 and 6.06 µM with NCI-H1975. In addition, in series [1], the concentration for half-maximal inhibition (IC50) at 72 h was above 80 µM. Besides, the selectivity ratio in series [2] is above 13.2.
In the same order, the values of `CC(=O)Nc1nc2cc(-c3ccc4ncn(Cc5ccccc5)c(=O)c4c3)ccc2[nH]1` are 0.83 µM, 0.91 µM, 1.02 µM, 1.87 µM and 1.83.
With `CCCNC(=O)c1cccc(-c2ccc3sc(NC(=O)C(C)(C)C)nc3c2)c1`, the concentration for half-maximal inhibition (IC50) was 31.4 µM in the series on A549, above 40 µM in the series with PC-9 and 8.16 µM in the series with NCI-H1975. The IC50 at 72 h in series [1] is above 80 µM. Also, the selectivity ratio in series [2] was above 9.8.
For the compound `Cc1ccc(CNC(=O)c2cccc(-c3ccc4sc(NC(=O)C(C)(C)C)nc4c3)c2)cc1`, the values for the IC50 with A549, in the series with PC-9 and in the series on NCI-H1975 were above 40 µM, above 40 µM and 12.4 µM, respectively. Moreover, the IC50 at 72 h in series [1] was above 80 µM. For the same compound, in series [2], the selectivity ratio was above 6.43.

The values above are taken from ChEMBL document CHEMBL6078662, “Discovery of 3-(2-aminobenzo[d]thiazol-5-yl) benzamide derivatives as potent anticancer agents via ROR1 inhibition” (Bioorg Med Chem, 2025).
